How the values were obtained:
[1] = in vivo; cited from earlier work
[2] = system: central muscarinic agonist site; experiment: Receptor [^3 H]Cis-methyldioxalane Assay (RCMD), rat cerebral cortex; assay type: binding
[3] = system: central muscarinic antagonist site; assay type: binding; conditions: rat cerebral cortex, [3H]quinuclidinyl benzilate
[4] = aged humans and nonhuman primates with decreased cognition; cited from earlier work

| SMILES | age-related cognitive deficits [1] | RCMD (% Inhibition at 0.1 μM) [2] | RQNB (% Inhibition at 1 μM) [3] | memory [4] |
| --- | --- | --- | --- | --- |
| Nc1ccncc1N [3,4-diaminopyridine] | ameliorate age-related cognitive deficits | – | – | – |
| CCc1nnnn1C1CN2CCC1CC2 (centres unmarked) [Example 1b, 3-(5-Ethyl-1H-tetrazol-1-yl)-1-azabicyclo[2.2.2]-octane] | – | 15% | 11% | – |
| CNC(=O)Oc1ccc2c(c1)[C@]1(C)CCN(C)[C@@H]1N2C [physostigmine] | – | – | – | improved memory |
| Cc1nnnn1C1CN2CCC1CC2 (centres unmarked) [Example 1a, 3-(5-Methyl-1H-tetrazol-1-yl)-1-azabicyclo[2.2.2]octane] | – | 8% | 19% | – |
| c1nnnn1C1CN2CCC1CC2 (centres unmarked) [Example 1, 3-(1H-Tetrazol-1-yl)-1-azabicyclo[2.2.2]octane] | – | 0% | 7% | – |

Reference: patent US5200419A, “Substituted tetrazoles and derivatives thereof acting at muscarinic receptors” (Warner-Lambert Company, priority 1990, dated 1993)
